In brackets after ≈: the same amount, converted by molar mass.

Series [1] concerns the target p38β (Homo sapiens, UniProt Q15759). In words: p38β kinase screening experiment (ADP-Glo). It is filed as biochemical. The following applies: ATP 100 μM in the substrate/ATP mix, 60 min; read-out: IC50 value that the compound inhibits p38β. Here is the method:
A certain amount of the compound is weighed, prepared into a 10/50 mM mother solution with DMSO, diluted 3 folds with DMSO, and diluted to 10 concentration points as a compound working solution.
50 nL of the diluted compound working solution is transferred to each well of a reaction plate (784075, Greiner) with Echo 655, then 2.5 μL (2 ng/μL) of a p38β kinase solution is added; after 10 minutes at room temperature, 2.5 μL of a mixed solution of a kinase substrate (0.4 mg/mL) and ATP (100 μM) is added, for reaction for 60 min at room temperature; and 4 μL of an ADP Glo reagent is added, for incubation for 40 min at room temperature. 8 μL of a kinase detection reagent is added, for incubation for 40 min at room temperature; and finally a light-emitting signal is read on Envision 2104.
Background: In ADP-Glo the light output rises with the ADP produced.

A short description of series [2]: Determination of solubility. It is filed as physicochemical. The following applies: aqueous buffer, thermodynamic from solid, 37° C. 1 h. Here is the method:
About 0.5 mg of a to-be-tested sample in a centrifuge tube is weighted, an appropriate amount of DMSO is added to completely dissolve the sample, and then methanol is added to make up to 1 ml.
(If there are more pH values to be investigated, the preparation method may be deduced by analogy).
3. The prepared control solution and test solution are simultaneously put into a 37° C. water bath and heated for 1 h, after 1 h, the solutions are taken out and cooled to room temperature, and then the solutions are filtered with a 0.22 μm filter membrane for sample injection.
4. The concentration of the sample in the test solution is calculated according to C=(A*(ms/vs))/AS, and experiment results are shown in Table 2.
Note: ms, vs and AS are the weight, volume and peak area of the sample in the control solution, respectively.
A is the peak area of the test solution.

The subject of series [3] is production of TNFα in U937. The experiment in a line: Releasing TNFα from U937 induced by LPS. The class given is cell-based. The settings on record: Homo sapiens, U-937; PMA-differentiated U937, LPS 100 ng/ml, 4 h; read-out: IC50 value that the compound inhibits the production of TNFα. The text has this: Cytokine regulation in human monocytes has shown that the p38 pathway is the key to the biosynthesis of a plurality of pro-inflammatory cytokines including TNFα, IL-1β and IL-6. Therefore, the inhibition of the p38 MAPK pathway is to reduce inflammatory response by reducing the biosynthesis of the pro-inflammatory cytokines. […] This is a reflection of the effect of the compound in the present invention to facilitate reduction of inflammation, which is useful in the treatment of various diseases, including chronic inflammatory diseases, acute inflammatory diseases, or self-inflammatory diseases. The potency and efficacy of the p38 inhibitor in blocking cytokine production are evaluated using a human U937 cell line.
A 1640 medium with an article number being A10491-01, Gibco; penicillin-streptomycin with an article number being 15140-122, Gibco; fetal bovine serum with an article number being 10099-141C, Gibco; PBS with an article number being 10010-031, Gibco; LPS with an article number being L2880, Sigma; PMA with an article number being P1585, Sigma; dimethyl sulfoxide with an article number being D8418-1L, Sigma; and a TNFα kit with an article number being K151QWD-4, MSD.
A 96-well plate with an article number being 3599, Corning; a plate-vibrating device with an article number being QB-9002, QILINBEIER; a centrifuge with an article number being 5810R, Eppendorf; a carbon dioxide incubator with an article number being 371, Thermo; a counter with an article number being C10281, Gibco; a microscope with an article number being CKX41, OLYMPUS; and an MSD plate reader with an article number being 1201 MESO SECTOR 600, MSD.
U937, ATCC with an article number being CRL-1593.2.
About 2 mg of a drug is weighted; a mother solution is prepared to 10 mM (which is calculated by free alkali) by means of DMSO; and the mother solution is diluted 10-fold to 1 mM, and then is successively diluted 4-fold to 250 μM, 62.5 μM, 15.6 μM, 3.9 μM, 0.97 μM, 0.24 μM, and 0.061 μM. The above series of diluted DMSO drugs is diluted 20-fold as working solutions by using media.
At Day 0, 10000/well inoculation is performed, stimulation is performed for 48 h with 20 ng/ml of PMA, and culture is performed at 37° C., 5% CO2. • At Day 2, 1. Supernatant is removed from differentiated U937, cleaning is performed once with PBS, and 96 μl of the 1640 medium is added. • 2. 2 μl of the compound containing (DMSO with a final concentration being 0.1%), and culture is performed for 30 min at 37° C., 5% CO2. • 3. 2 μl of LPS (a final concentration being 100 ng/ml) is added, cells are stimulated, and culture is performed for 4 h at 37° C., 5% CO2. • 4. Centrifugation is performed, supernatant is taken, and content of TNFα in the supernatant is determined through ELISA.
The content of TNFα corresponding to each well is calculated by using a standard curve in the kit.
The compound IC50 is calculated by using a GraphPad nonlinear fitting formula, and for an experimental result, refer to Table 1.

Series [4] can be described thus: Pharmacokinetic experiment in Beagle dogs (IV and PO). The class given is in vivo. The following applies: male, dog, plasma. An excerpt:
Polyethylene glycol 400 (batch number: GORKREUT, Saen Chemical Technology (Shanghai) Co., Ltd.); DMSO (batch number: 20200319, GHTECH (Guangdong) Co., Ltd.); and normal saline (batch number: C20052604, Jiangxi Kelun Pharmaceutical Co., Ltd.). An LC-MS instrument (Thermo Fisher Ultimate 3000 UPLC, TSQ QUANTUM ULTRA TSQ Quantum GC).
5 male Beagle dogs with weights being 5 kg to 7 kg, purchased from Beijing Mars Biotechnology Co., Ltd. […]
After the above mixture is given to the dogs through intragastric administration (n=3) or intravenous administration (n=2), about 1 mL of blood is collected from the forelimb or hindlimb vein with a scalp needle, respectively, at 5 min (intravenous administration only), 15 min, 30 min, 1 h, 2 h, 4 h, 6 h, 8 h, 24 h to put into blood collection tubes containing EDTA-K2 anticoagulant; centrifugation is performed for 10 min at 4000 rpm to separate plasma; and then the tubes are stored at −80° C. for testing.
A certain amount of a test sample is accurately weighted and dissolved with DMSO to 2 mg/mL, as a stock solution. The stock solution is diluted to 30000, 10000, 3000, 1000, 300, 100, 50, 30, and 10 ng/mL by using acetonitrile:water (1:1), to obtain standard curve working solutions. 5 μL of the working solution is added to 45 μL of blank canine plasma; and well mixing is performed through vortex, to prepare into standard curve samples equivalent to plasma concentrations of 3000, 1000, 300, 100, 30, 10, 5, 3, and 1 ng/mL. 30 μL of the standard curve sample and the collected plasma sample (plasma collected at 5 min, 15 min, and 30 min of intravenous administration is diluted 5-fold) are added to 150 μL of a propranolol acetonitrile solution (internal standard, 50 ng/mL) to precipitate protein, then 100 μL of water is added to well mix through vortex; centrifugation is performed for 5 min at 4000 rpm; and supernatant is taken for LC-MS analysis. LC-MS detection conditions include the following.
Chromatographic column: Waters ACQUITY™ PREMIER HSS T3, 50*2.1 mm, 1.8 μm.
Mobile phase A: water (0.1% formic acid); mobile phase B: acetonitrile; flow rate: 0.5 mL/min; and gradient elution is shown in Table 3 below.
After LC-MS detection of blood drug concentration, and a non-compartment model of WinNonlin 6.1 software is adopted to calculate pharmacokinetic parameters of beagle dogs after administration.

Chain of p38β (Q15759 whole entry): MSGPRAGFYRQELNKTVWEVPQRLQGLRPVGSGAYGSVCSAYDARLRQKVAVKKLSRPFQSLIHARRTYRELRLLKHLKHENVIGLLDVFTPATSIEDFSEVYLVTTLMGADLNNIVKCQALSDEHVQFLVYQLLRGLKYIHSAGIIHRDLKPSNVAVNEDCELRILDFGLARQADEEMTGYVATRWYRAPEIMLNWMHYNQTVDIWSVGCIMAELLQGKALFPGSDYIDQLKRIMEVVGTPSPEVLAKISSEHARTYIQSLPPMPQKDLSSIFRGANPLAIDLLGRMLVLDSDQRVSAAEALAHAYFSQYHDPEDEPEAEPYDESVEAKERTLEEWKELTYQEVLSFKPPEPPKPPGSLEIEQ

For orientation: IC50 means the concentration that inhibits the measured activity by half. Broadly, the solubility is the concentration that dissolves in the medium under given conditions. What is called AUC(0-t) is the area under the concentration-time curve up to a stated or last time point. Low values mean less exposure, high ones more exposure. A word on the Cmax: it is the maximum level reached in the sampled fluid or tissue. For `Cc1cnc(-c2ccnc(C(C)(C)O)n2)cc1-n1c(C)cc(OCc2ncc(F)cc2F)c(Cl)c1=O` (racemic) [Comparative example 1], the half-maximal inhibitory concentration (IC50) in series [1] is 5.97 µM; in series [3] it was 0.0104 µM. Also, the solubility at 1 h was found to be 0.0568 mg/mL (≈ 111 µM) in series [2] (pH = 2.0, PBS buffer) and 0.0268 mg/mL (≈ 52.1 µM) in series [2] (pH = 7.4, PBS buffer). Besides, the figures for the AUC(0-t) in series [4] (IV 1 mg/kg) and in series [4] (PO 5 mg/kg) were 1.53 µg·h/mL and 14.4 µg·h/mL, respectively. Further, the Cmax in series [4] (IV 1 mg/kg) was 0.657 µg/mL; in series [4] (PO 5 mg/kg) it was 2 µg/mL. Also, the clearance in series [4] (IV 1 mg/kg) stood at 0.642 L/h/kg. Moreover, the bioavailability in series [4] (PO 5 mg/kg vs IV 1 mg/kg) was determined as 189%.

Values taken from US20240166627A1, “Terpyridinedione compound or salt thereof, and preparation method and application thereof” (SHENZHEN SALUBRIS PHARMACEUTICALS CO., LTD., priority 2021, published 2024).
